According to patent US11884671B2, “Purinone compounds and their use in treating cancer” (ASTRAZENECA AB, priority 2018, dated 2024):

Key:
[1] = molecular target: TTK (Homo sapiens (Human), UniProt P33981); test: TTK enzyme assay (LanthaScreen Eu Kinase Binding); details: arithmetic mean of two or more experiments; for IC50: read-out: TTK enz pIC50 (converted)
Method: The inhibitory activity of compounds against TTK was determined in a LanthaScreen® Eu Kinase Binding assay run by ThermoFisher Scientific as part of their SelectScreen® Biochemical Kinase Profiling Service. The LanthaScreen® Eu Kinase Binding assay format uses binding of an Alexa Fluor® conjugate or “tracer” to a kinase, which is detected by addition of a Eu-labeled anti-tag antibody. […] The degree of FRET measured in the assay is used to determine the binding of a compound.
(§1) 10 point three-fold dilution compound concentration-response curves, with a top concentration of 10 μM were generated from 10 mM stocks of compound solubilised in DMSO. All assays were performed in white, low volume Greiner 384-well plates (cat. #784207, Greiner), in a total reaction volume of 16 μL and 1% (v/v) final DMSO concentration. […] Plates were then read using a fluorescence plate reader. IC50 values were calculated using XLfit software (IDBS Ltd, Surrey, UK), with the curve fit to model number 205 (sigmoidal dose-response model).

[2] = molecular target: AURKA (Aurora A) (Homo sapiens (Human), UniProt O14965); test: Aurora-A enzyme assay (Z'-LYTE); type: biochemical; details: 10 μM ATP, arithmetic mean of two or more experiments; for IC50: read-out: AurA enz pIC50 (converted)
Chain of AURKA (Aurora A) (O14965 whole entry): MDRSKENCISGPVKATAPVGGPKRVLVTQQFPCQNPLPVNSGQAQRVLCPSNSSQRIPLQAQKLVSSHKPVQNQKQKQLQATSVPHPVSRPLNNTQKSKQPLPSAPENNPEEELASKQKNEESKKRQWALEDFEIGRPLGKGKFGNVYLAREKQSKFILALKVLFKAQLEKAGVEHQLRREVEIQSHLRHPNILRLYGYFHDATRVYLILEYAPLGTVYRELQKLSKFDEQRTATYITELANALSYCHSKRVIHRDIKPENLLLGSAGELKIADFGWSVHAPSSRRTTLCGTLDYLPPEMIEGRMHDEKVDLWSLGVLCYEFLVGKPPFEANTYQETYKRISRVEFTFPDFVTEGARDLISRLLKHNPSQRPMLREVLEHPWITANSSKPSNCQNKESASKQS
Method: (§2) The inhibitory activity of compounds against AURKA, AURKB, JAK1, JAK2 and JAK3 was determined in Z′-LYTE® assays run by ThermoFisher Scientific as part of their SelectScreen® Biochemical Kinase Profiling Service. The Z′-LYTE® biochemical assay format employs a fluorescence-based, coupled-enzyme format and is based on the differential sensitivity of phosphorylated and non-phosphorylated peptides to proteolytic cleavage. The peptide substrate is labeled with two fluorophores—one at each end—that make up a FRET pair. In the primary reaction, the kinase transfers the gamma-phosphate of ATP to a single tyrosine, serine or threonine residue in a synthetic FRET-peptide. In the secondary reaction, a site-specific protease recognises and cleaves non-phosphorylated FRET-peptides. Phosphorylation of FRET-peptides suppresses cleavage by the Development Reagent. Cleavage disrupts FRET between the donor (i.e., coumarin) and acceptor (i.e., fluorescein) fluorophores on the FRET-peptide, whereas uncleaved, phosphorylated FRET-peptides maintain FRET. A ratiometric method, which calculates the ratio (the Emission Ratio) of donor emission to acceptor emission after excitation of the donor fluorophore at 400 nm, is used to quantitate reaction progress. Both cleaved and uncleaved FRET-peptides contribute to the fluorescence signals and therefore to the Emission Ratio. The extent of phosphorylation of the FRET-peptide can be calculated from the Emission Ratio.
as §1, with “black, non-binding,” for “white,”, “Corning” for “Greiner”, “#4514, Corning),” for “#784207, Greiner),”, “10” for “16”, “The kinase reaction was” for “Plates were”, “quenched by the addition of 5 μL of Development Reagent (ThermoFisher Scientific proprietary). […]” for “read using a fluorescence plate reader.”
Aurora A (AurA): The 2×AURKA (Aurora A)/Ser/Thr 01 (ThermoFisher Scientific proprietary) mixture was prepared in 50 mM HEPES pH 7.5, 0.01% BRIJ-35, 10 mM MgCl2, 1 mM EGTA. […] After the 1 hour Kinase Reaction incubation, 5 μL of a 1:4096 dilution of Development Reagent was added.

[3] = molecular target: JAK3 (Homo sapiens (Human), UniProt P52333); test: JAK3 enzyme assay (Z'-LYTE); type: biochemical; details: 10 μM ATP, arithmetic mean of two or more experiments; for IC50: read-out: JAK3 enz pIC50 (converted)
Chain of JAK3 (P52333 whole entry): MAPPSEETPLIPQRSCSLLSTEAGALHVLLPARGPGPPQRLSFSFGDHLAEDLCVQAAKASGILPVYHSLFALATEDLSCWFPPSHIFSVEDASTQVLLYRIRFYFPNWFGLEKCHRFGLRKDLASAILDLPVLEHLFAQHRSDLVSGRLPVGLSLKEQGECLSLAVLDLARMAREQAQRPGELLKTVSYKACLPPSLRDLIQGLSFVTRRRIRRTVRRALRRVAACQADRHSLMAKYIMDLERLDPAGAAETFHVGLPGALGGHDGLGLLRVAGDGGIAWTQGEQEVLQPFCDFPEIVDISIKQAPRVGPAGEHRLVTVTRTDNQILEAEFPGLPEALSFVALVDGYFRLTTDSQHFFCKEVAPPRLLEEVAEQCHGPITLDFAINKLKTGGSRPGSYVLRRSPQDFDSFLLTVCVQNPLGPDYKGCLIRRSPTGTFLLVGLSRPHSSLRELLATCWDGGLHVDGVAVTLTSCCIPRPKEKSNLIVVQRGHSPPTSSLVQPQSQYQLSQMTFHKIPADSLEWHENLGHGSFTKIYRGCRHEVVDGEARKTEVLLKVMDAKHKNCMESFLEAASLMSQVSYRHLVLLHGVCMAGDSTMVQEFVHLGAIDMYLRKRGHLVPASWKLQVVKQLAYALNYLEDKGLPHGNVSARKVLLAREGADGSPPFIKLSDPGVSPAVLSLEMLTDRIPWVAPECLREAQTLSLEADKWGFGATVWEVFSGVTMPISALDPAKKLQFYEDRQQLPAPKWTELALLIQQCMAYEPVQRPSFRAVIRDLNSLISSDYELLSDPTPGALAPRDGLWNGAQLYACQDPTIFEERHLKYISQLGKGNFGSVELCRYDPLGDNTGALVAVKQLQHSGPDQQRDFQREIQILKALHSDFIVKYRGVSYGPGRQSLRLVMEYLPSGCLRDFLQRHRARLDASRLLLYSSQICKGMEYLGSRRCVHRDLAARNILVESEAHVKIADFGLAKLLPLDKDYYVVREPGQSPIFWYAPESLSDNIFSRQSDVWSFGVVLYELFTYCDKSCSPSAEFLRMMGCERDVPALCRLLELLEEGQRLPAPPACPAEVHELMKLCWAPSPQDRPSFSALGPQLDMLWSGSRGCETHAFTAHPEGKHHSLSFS
Method: as §2
as §1, with “black, non-binding,” for “white,”, “Corning” for “Greiner”, “#4514, Corning),” for “#784207, Greiner),”, “10” for “16”, “The kinase reaction was” for “Plates were”, “quenched by the addition of 5 μL of Development Reagent (ThermoFisher Scientific proprietary). […]” for “read using a fluorescence plate reader.”
JAK3: The 2×JAK3/Tyr 06 (ThermoFisher Scientific proprietary) mixture was prepared in 50 mM HEPES pH 7.5. 0.01% BRIJ-35, 10 mM MgCl2, 1 mM EGTA. […] After the 1 hour Kinase Reaction incubation, 5 μL of a 1:128 dilution of Development Reagent was added.

[4] = molecular target: Full length human DNAPK protein (Homo sapiens (Human), UniProt P78527); test: DNAPK enzyme potency assay (DNA-PK enz), TR-FRET; type: biochemical; details: arithmetic mean of two or more experiments, 18 μM ATP; for IC50: read-out: DNA-PK enz pIC50 (converted)
Source text: The following assays were used to measure the effects of the compounds described herein: a) DNAPK enzyme potency assay; b) DNAPK cellular potency assay. During the description of the assays, generally: • i. The following abbreviations have been used; DMSO=Dimethyl Sulphoxide; DTT=Dithiothreitol; EDTA=Ethylenediaminetetraacetic Acid, TR-FRET=Time Resolved Fluorescence Resonance Energy Transfer, ATP=Adenosine triphosphate, DTT=Dithiothreitol, DNA=Deoxyribonucleic acid, HEPES=(2-hydroxyethyl)-1-piperazineethanesulfonic acid • ii. […] Assay a): DNAPK Enzyme Potency Assay (DNA-PK Enz)
The inhibitory activity of compounds against DNAPK was determined by TR-FRET measuring a fluorescent labelled peptide substrate converting to a phosphorylated product. Fluorescently tagged peptide substrate were purchased from Thermo Fisher Scientific. 12 point half-log compound concentration-response curves, with a top concentration of 100 μM were generated from 10 mM stocks of compound solubilised in DMSO using an Echo 555 (Labcyte Inc., Sunnyvale, CA). All assays were preformed in white Greiner 1536 well low volume plates (Greiner Bio-One, UK), in a total reaction volume of 3 μL and 1% (v/v) final DMSO concentration. Enzymes and substrates were added separately to the compound plates and incubated at room temperature. The kinase reaction was then quenched by the addition of 3 μL of stop buffer. Stopped assay plates were read using a BMG Pherastar. IC50 values were calculated using a Genedata Screener® software (Genedata, Inc., Basel, Switzerland).
Full length human DNAPK protein was purified from HeLa cell extract by ion exchange. Initially DNAPK protein was incubated with compound for 30 minutes at room temperature in reaction buffer (50 mM Hepes pH 7.5, 0.01% Brij-35, 10 mM MgCl2, 1 mM EGTA, 1 mM DTT, […] Calf Thymus DNA). The reaction was then initiated by the addition of ATP and fluorescently tagged peptide substrate (Fluorescein-[…], Thermo Fisher Scientific). […] The reaction was incubated for a further hour and the plates were read on a BMG Pherastar.
Data was analysed and IC50 values were calculated using Genedata Screener® software (Genedata, Inc., Basel, Switzerland).

[5] = molecular target: AURKB (Aurora B) (Homo sapiens (Human), UniProt Q96GD4); test: Aurora-B enzyme assay (Z'-LYTE); type: biochemical; details: 75 μM ATP, arithmetic mean of two or more experiments; for IC50: read-out: AurB enz pIC50 (converted)
Chain of AURKB (Aurora B) (Q96GD4 whole entry): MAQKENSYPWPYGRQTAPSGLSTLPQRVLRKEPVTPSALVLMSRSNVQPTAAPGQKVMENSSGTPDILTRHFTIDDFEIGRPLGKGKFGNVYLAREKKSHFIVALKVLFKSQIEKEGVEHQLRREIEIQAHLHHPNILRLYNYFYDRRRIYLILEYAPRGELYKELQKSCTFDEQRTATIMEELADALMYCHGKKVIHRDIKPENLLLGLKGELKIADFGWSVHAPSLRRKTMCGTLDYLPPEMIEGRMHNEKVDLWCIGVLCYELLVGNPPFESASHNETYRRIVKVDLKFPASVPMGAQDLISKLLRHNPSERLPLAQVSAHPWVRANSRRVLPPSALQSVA
Method: as §2
as §1, with “black, non-binding,” for “white,”, “Corning” for “Greiner”, “#4514, Corning),” for “#784207, Greiner),”, “10” for “16”, “The kinase reaction was” for “Plates were”, “quenched by the addition of 5 μL of Development Reagent (ThermoFisher Scientific proprietary). […]” for “read using a fluorescence plate reader.”
Aurora B (AurB): The 2×AURKB (Aurora B)/Ser/Thr 01 (ThermoFisher Scientific proprietary) mixture was prepared in 50 mM HEPES pH 7.5, 0.01% BRIJ-35, 10 mM MgCl2, 1 mM EGTA. […] After the 1 hour Kinase Reaction incubation, 5 μL of a 1:4096 dilution of Development Reagent was added.

Chain of TTK (P33981 whole entry): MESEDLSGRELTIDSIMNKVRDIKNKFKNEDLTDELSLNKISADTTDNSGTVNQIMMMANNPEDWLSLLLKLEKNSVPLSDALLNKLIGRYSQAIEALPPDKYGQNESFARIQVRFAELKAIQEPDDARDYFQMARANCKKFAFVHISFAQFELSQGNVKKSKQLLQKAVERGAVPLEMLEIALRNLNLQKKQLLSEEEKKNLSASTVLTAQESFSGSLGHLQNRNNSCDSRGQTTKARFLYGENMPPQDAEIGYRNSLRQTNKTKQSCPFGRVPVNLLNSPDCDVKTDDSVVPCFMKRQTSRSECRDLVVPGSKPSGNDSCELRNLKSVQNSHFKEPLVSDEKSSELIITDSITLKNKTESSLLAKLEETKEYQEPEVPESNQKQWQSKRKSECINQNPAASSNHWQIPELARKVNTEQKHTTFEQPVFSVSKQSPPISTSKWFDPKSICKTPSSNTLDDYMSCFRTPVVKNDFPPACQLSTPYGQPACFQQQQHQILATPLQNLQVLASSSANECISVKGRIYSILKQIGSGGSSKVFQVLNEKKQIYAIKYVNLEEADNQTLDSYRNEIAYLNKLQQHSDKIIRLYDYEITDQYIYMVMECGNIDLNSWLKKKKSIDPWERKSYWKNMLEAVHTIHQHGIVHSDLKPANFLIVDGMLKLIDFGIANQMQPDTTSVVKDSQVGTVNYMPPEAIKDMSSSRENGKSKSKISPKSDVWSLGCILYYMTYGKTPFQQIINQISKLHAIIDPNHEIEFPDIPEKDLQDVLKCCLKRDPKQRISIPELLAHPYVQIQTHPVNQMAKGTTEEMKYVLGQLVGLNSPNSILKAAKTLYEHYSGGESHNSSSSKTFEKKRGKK

| SMILES | IC50 [1] | IC50 [2] | IC50 [3] | IC50 [4] | IC50 [5] | TTK enz pIC50 [1] | AurA enz pIC50 [2] | JAK3 enz pIC50 [3] | DNA-PK enz pIC50 [4] | AurB enz pIC50 [5] |
| --- | --- | --- | --- | --- | --- | --- | --- | --- | --- | --- |
| Cc1cc2nccnc2cc1Nc1ncc2c(n1)n([C@H]1CC[C@@H](O)CC1)c(=O)n2C [Example 13, 9-((1s,4s)-4-hydroxycyclohexyl)-7-methyl-2-((7-methylquinoxalin-6-yl)amino)-7,9-dihydro-8H-purin-8-one] | 0.316 µM | > 10 µM | > 10 µM | 0.0002 µM | > 10 µM |  |  |  |  |  |
| Cc1cc2nccnc2cc1Nc1ncc2c(n1)n([C@H]1CC[C@](C)(O)CC1)c(=O)n2C [Example 18, 9-((1r,4r)-4-hydroxy-4-methylcyclohexyl)-7-methyl-2-((7-methylquinoxalin-6-yl)amino)-7,9-dihydro-8H-purin-8-one] | 1.58 µM | > 10 µM | > 10 µM | 0.000251 µM | > 10 µM |  |  |  |  |  |
| Cc1cc2nccnc2cc1Nc1ncc2c(n1)n([C@H]1CC[C@@](C)(O)CC1)c(=O)n2C [Example 19, 9-((1s,4s)-4-hydroxy-4-methylcyclohexyl)-7-methyl-2-((7-methylquinoxalin-6-yl)amino)-7,9-dihydro-8H-purin-8-one] | 0.2 µM | > 10 µM | > 10 µM | 0.000158 µM | > 10 µM |  |  |  |  |  |
| Cc1cc2nccnc2cc1Nc1ncc2c(n1)n([C@]1(C)CC[C@H](O)CC1)c(=O)n2C [Example 20, 9-((1s,4s)-4-hydroxy-1-methylcyclohexyl)-7-methyl-2-((7-methylquinoxalin-6-yl)amino)-7,9-dihydro-8H-purin-8-one] |  |  |  |  |  | 6.4 | <5 | <5 | 10.0 | <5 |
| Cc1cc2nnccc2cc1Nc1ncc2c(n1)n([C@H]1CCOC1)c(=O)n2C [Example 21, (S)-7-methyl-2-((7-methylcinnolin-6-yl)amino)-9-(tetrahydrofuran-3-yl)-7,9-dihydro-8H-purin-8-one] |  |  |  |  |  | 6.4 | <5 | <5 | >10 | <5 |
| Cc1cc2nccnc2cc1Nc1ncc2c(n1)n([C@H]1CCOC1)c(=O)n2C [Example 22, (S)-7-methyl-2-((7-methylquinoxalin-6-yl)amino)-9-(tetrahydrofuran-3-yl)-7,9-dihydro-8H-purin-8-one] |  |  |  |  |  | 5.5 | <5 | <5 | 9.8 | <5 |
| Cc1cc2nnccc2cc1Nc1ncc2c(n1)n([C@@H]1CCOC1)c(=O)n2C [Example 23, (R)-7-methyl-2-((7-methylcinnolin-6-yl)amino)-9-(tetrahydrofuran-3-yl)-7,9-dihydro-8H-purin-8-one] |  |  |  |  |  | 5.9 | <5 | <5 | 9.4 | <5 |
| Cc1cc2nccnc2cc1Nc1ncc2c(n1)n([C@@H]1CCOC1)c(=O)n2C [Example 24, (R)-7-methyl-2-((7-methylquinoxalin-6-yl)amino)-9-(tetrahydrofuran-3-yl)-7,9-dihydro-8H-purin-8-one] |  |  |  |  |  | 5.6 | <5 | <5 | 9.1 | <5 |
| Cc1cc2nnccc2cc1Nc1ncc2c(n1)n([C@@H]1CCCOC1)c(=O)n2C [Example 25, (R)-7-methyl-2-((7-methylcinnolin-6-yl)amino)-9-(tetrahydro-2H-pyran-3-yl)-7,9-dihydro-8H-purin-8-one] |  |  |  |  |  | 6.2 | <5 | <5 | 9.7 | <5 |
| Cc1cc2nccnc2cc1Nc1ncc2c(n1)n([C@@H]1CCCOC1)c(=O)n2C [Example 26, (R)-7-methyl-2-((7-methylquinoxalin-6-yl)amino)-9-(tetrahydro-2H-pyran-3-yl)-7,9-dihydro-8H-purin-8-one] |  |  |  |  |  | 5.8 | <5 | <5 | 9.8 | <5 |
| Cc1cc2nnccc2cc1Nc1ncc2c(n1)n([C@H]1CCCOC1)c(=O)n2C [Example 27, (S)-7-methyl-2-((7-methylcinnolin-6-yl)amino)-9-(tetrahydro-2H-pyran-3-yl)-7,9-dihydro-8H-purin-8-one] |  |  |  |  |  | 6.4 | <5 | <5 | >10 | <5 |
| Cc1cc2nccnc2cc1Nc1ncc2c(n1)n([C@H]1CCCOC1)c(=O)n2C [Example 28, (S)-7-methyl-2-((7-methylquinoxalin-6-yl)amino)-9-(tetrahydro-2H-pyran-3-yl)-7,9-dihydro-8H-purin-8-one] |  |  |  |  |  | 6.1 | 5.3 | <5 | >10 | <5 |
| Cc1cnc2cc(Nc3ncc4c(n3)n(C3CCOCC3)c(=O)n4C)c(C)cc2n1 [Example 33, 2-((2,7-dimethylquinoxalin-6-yl)amino)-7-methyl-9-(tetrahydro-2H-pyran-4-yl)-7,9-dihydro-8H-purin-8-one] | 1.26 µM | > 10 µM | > 10 µM | 0.000501 µM | > 10 µM |  |  |  |  |  |
